Eight compounds from BindingDB's records for doi:10.1016/0922-4106(94)90065-5 (National Children's Medical Research Center, 1994) can be followed below.

The test addresses T1, Alpha-1B adrenergic receptor (Mesocricetus auratus, UniProt P18841).
T1 sequence (P18841 whole entry): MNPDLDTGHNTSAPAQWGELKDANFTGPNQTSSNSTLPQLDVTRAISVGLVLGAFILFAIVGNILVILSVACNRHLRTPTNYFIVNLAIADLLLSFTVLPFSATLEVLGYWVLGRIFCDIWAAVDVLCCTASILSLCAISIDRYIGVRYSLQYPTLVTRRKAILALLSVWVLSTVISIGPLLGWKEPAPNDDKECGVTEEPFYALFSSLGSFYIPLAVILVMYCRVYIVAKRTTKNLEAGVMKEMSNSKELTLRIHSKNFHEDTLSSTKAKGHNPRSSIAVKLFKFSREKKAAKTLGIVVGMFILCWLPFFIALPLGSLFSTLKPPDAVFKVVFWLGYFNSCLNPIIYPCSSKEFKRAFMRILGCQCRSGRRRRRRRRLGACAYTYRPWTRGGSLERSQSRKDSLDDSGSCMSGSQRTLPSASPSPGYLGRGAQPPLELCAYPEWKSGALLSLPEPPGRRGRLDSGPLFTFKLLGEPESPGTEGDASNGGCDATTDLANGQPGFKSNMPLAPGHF
`COc1ccc(OC)c(C(O)C(C)N)c1` (stereo not drawn) gave a Ki greater than 10000 nM.

Compound `CC(C)NCC(O)c1ccc(O)c(O)c1` (stereo not drawn) [Isoproterenol,(+)] returned a Ki greater than 10000 nM. For `NCC(O)c1ccc(O)c(O)c1` (stereo not drawn) [Noradrenaline,(+)] the value was 920 nM; for `Cc1ccc(N(CC2=NCCN2)c2cccc(O)c2)cc1` [SMR000059054], 18 nM. For `COc1ccccc1N1CCN(CCCNc2c(C)c(=O)n(C)c(=O)n2C)CC1` [Urapidil-5-methyl] the value was 180 nM; for `COc1cccc(OC)c1OCCNCC1Oc2ccccc2OC1c1ccccc1` (stereo not drawn) [NSC_185453], 5.2 nM; for `CNCC(O)c1ccc(O)c(O)c1` (stereo not drawn) [EPINEPHRINE], 9400 nM. For `COC(=O)[C@@H]1[C@H]2C[C@H]3c4[nH]c5ccccc5c4CCN3C[C@@H]2CC[C@@H]1O` [yohimbic acid methyl ester] the value was 670 nM.
